Active and inactive are the calls of the source. The rule behind the calls is not given here.
Tests used:
[1] = tested on: Schoenoplectiella juncoides; assay: Herbicidal activity against Schoenoplectiella juncoides var. Hotarui Ohwi assessed as phytotoxic activity ratings (0- no effect to 5-complete killing rating scale) at 100 g/a measured after 3 weeks post compound treatment under green house conditions; format: functional
Echinochloa oryzicola = assay: Herbicidal activity against Echinochloa oryzicola assessed as phytotoxic activity ratings (0- no effect to 5-complete killing rating scale) at 100 g/a measured after 3 weeks post compound treatment under green house conditions; format: functional
Oryza sativa [2] = assay: Phytotoxicity against directly seeded Oryza sativa (rice) seedlings assessed as phytotoxic activity ratings (0- no effect to 5-complete killing rating scale) at 100 g/a measured after 3 weeks post compound treatment under green house conditions; format: organism-based; conditions: in vivo, 504 h
Cyperus difformis = assay: Herbicidal activity against Cyperus difformis assessed as phytotoxic activity ratings (0- no effect to 5-complete killing rating scale) at 100 g/a measured after 3 weeks post compound treatment under green house conditions; format: functional
Cyperus serotinus = assay: Herbicidal activity against Cyperus serotinus assessed as phytotoxic activity ratings (0- no effect to 5-complete killing rating scale) at 3.1 to 100 g/a measured after 3 weeks post compound treatment under green house conditions; format: functional
Oryza sativa [3] = assay: Phytotoxicity against transplanted Oryza sativa (rice) seedlings assessed as phytotoxic activity ratings (0- no effect to 5-complete killing rating scale) at 100 g/a measured after 3 weeks post compound treatment under green house conditions; format: organism-based; conditions: in vivo, 504 h

Structure (SMILES) | Activity [1] [%] | Activity (Echinochloa oryzicola) [%] | Activity (Oryza sativa [2]) [%] | Activity (Cyperus difformis) [%] | Activity (Cyperus serotinus) | Activity (Oryza sativa [3]) [%]
CC(=O)c1ccccc1NC(=O)N[C@H](C)c1ccccc1 | 0 | 0 | 0 | 0 | inactive | 0
CCc1cccc(CC)c1NC(=O)N[C@@H](C)c1ccccc1 | 0 | 0 | 0 | 0 | inactive | 0
CCOC(=O)c1ccccc1NC(=O)N[C@@H](C)c1ccccc1 | 0 | 10 | 0 | 0 | inactive | 0
C[C@@H](NC(=O)Nc1ccc(C(C)(C)C)cc1)c1ccccc1 | 0 | 10 | 0 | 0 | inactive | 0
CCCCc1ccc(NC(=O)N[C@H](C)c2ccccc2)cc1 | 0 | 10 | 10 | 0 | inactive | 0
CCc1cccc(CC)c1NC(=O)N[C@H](C)c1ccccc1 | 0 | 0 | 0 | 0 | inactive | 0
C[C@H](NC(=O)Nc1ccc(Cl)c(Cl)c1)c1ccccc1 | 0 | 0 | 0 | 0 | inactive | 0
C[C@H](NC(=O)Nc1cc(C(F)(F)F)ccc1F)c1ccccc1 | 0 | 0 | 0 | 0 | inactive | 0
CCOC(=O)c1ccc(NC(=O)N[C@@H](C)c2ccccc2)cc1 | 0 | 0 | 0 | 0 | inactive | 0
C[C@H](NC(=O)Nc1cccc(C(F)(F)F)c1F)c1ccccc1 | 0 | 0 | 0 | 0 | inactive | 0
C[C@@H](NC(=O)Nc1cccc(Cl)c1Cl)c1ccccc1 | 0 | 0 | 0 | 0 | inactive | 0
C[C@@H](NC(=O)Nc1ccc(Br)cc1)c1ccccc1 | 0 | 0 | 0 | 0 | inactive | 0
CCCc1ccc(NC(=O)N[C@@H](C)c2ccccc2)cc1 | 0 | 10 | 0 | 40 | – | 0
C[C@H](NC(=O)Nc1cc(F)cc(F)c1)c1ccccc1 | 0 | 10 | – | 0 | inactive | 0
C[C@@H](NC(=O)Nc1ccccc1I)c1ccccc1 | – | 0 | 0 | 10 | inactive | 0
C[C@@H](NC(=O)Nc1cccc(C(F)(F)F)c1F)c1ccccc1 | – | 0 | 0 | 0 | inactive | 0
C[C@H](NC(=O)Nc1cc(C(C)(C)C)ccc1C(C)(C)C)c1ccccc1 | – | 0 | 0 | 0 | inactive | 0
C[C@H](NC(=O)Nc1ccc(Br)cc1)c1ccccc1 | – | 0 | 0 | 0 | inactive | 0

From ChEMBL document CHEMBL3046383, “Enantioselective Herbicidal Activity of Chiral α-Methylbenzylphenylureas against Cyperaceae and Echinochloa Paddy Weeds” (Biosci Biotechnol Biochem, 1998)
